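Interpolation was linear, between the two tested concentrations surrounding the appropriate level; five concentrations were tested over 48 hours in 96-well plates. GI50 marks 50% less growth. TGI: total growth inhibition.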
Legend:
Assay in all cases: inhibition of tumour cell growth, NCI panel, 48 h
HL-60(TB) leukemia = tested on: HL-60(TB) leukemia
SK-OV-3 ovarian = tested on: SK-OV-3 ovarian
KM12 colon = tested on: KM12 colon
NCI-H460 lung = tested on: NCI-H460 lung
HT29 colon = tested on: HT29 colon
786-0 renal = tested on: 786-0 renal
A498 renal = tested on: A498 renal
MCF7 breast = tested on: MCF7 breast
OVCAR-3 ovarian = tested on: OVCAR-3 ovarian
LOX IMVI melanoma = tested on: LOX IMVI melanoma
HOP-62 NSCLC = tested on: HOP-62 NSCLC
SF-539 CNS = tested on: SF-539 CNS
BT-549 breast = tested on: BT-549 breast
SK-MEL-28 melanoma = tested on: SK-MEL-28 melanoma
HCT-116 colon = tested on: HCT-116 colon
OVCAR-5 ovarian = tested on: OVCAR-5 ovarian
HCT-15 colon = tested on: HCT-15 colon
K-562 leukemia = tested on: K-562 leukemia
SNB-75 CNS = tested on: SNB-75 CNS
HOP-92 NSCLC = tested on: HOP-92 NSCLC
OVCAR-8 ovarian = tested on: OVCAR-8 ovarian
NCI-H23 lung = tested on: NCI-H23 lung
IGROV1 ovarian = tested on: IGROV1 ovarian
CCRF-CEM leukemia = tested on: CCRF-CEM leukemia
MALME-3M melanoma = tested on: MALME-3M melanoma
CAKI-1 renal = tested on: CAKI-1 renal
SNB-19 CNS = tested on: SNB-19 CNS
SR leukemia = tested on: SR leukemia
RPMI-8226 leukemia = tested on: RPMI-8226 leukemia
HCC-2998 colon = tested on: HCC-2998 colon
RXF 393 renal = tested on: RXF 393 renal
DU-145 prostate = tested on: DU-145 prostate
U251 CNS = tested on: U251 CNS
HS 578T breast = tested on: HS 578T breast
TK-10 renal = tested on: TK-10 renal
MDA-MB-231 breast = tested on: MDA-MB-231 breast
UO-31 renal = tested on: UO-31 renal
ACHN renal = tested on: ACHN renal
SF-295 CNS = tested on: SF-295 CNS
T-47D breast = tested on: T-47D breast
NCI-H226 lung = tested on: NCI-H226 lung
SK-MEL-5 melanoma = tested on: SK-MEL-5 melanoma
SF-268 CNS = tested on: SF-268 CNS
MOLT-4 leukemia = tested on: MOLT-4 leukemia
COLO 205 colon = tested on: COLO 205 colon
A549 NSCLC = tested on: A549 NSCLC
OVCAR-4 ovarian = tested on: OVCAR-4 ovarian
UACC-257 melanoma = tested on: UACC-257 melanoma
SN12C renal = tested on: SN12C renal
MDA-MB-435 = tested on: MDA-MB-435
NCI-H522 lung = tested on: NCI-H522 lung
SW-620 colon = tested on: SW-620 colon
PC-3 prostate = tested on: PC-3 prostate
SK-MEL-2 melanoma = tested on: SK-MEL-2 melanoma
UACC-62 melanoma = tested on: UACC-62 melanoma
M14 melanoma = tested on: M14 melanoma
NCI/ADR-RES ovarian = tested on: NCI/ADR-RES ovarian

CS(=O)(=O)CCCn1c(=O)c(Oc2ccc(F)cc2F)cc2cnc(NC3CCOCC3)nc21
GI50 (HL-60(TB) leukemia): > 25 µM
TGI (HL-60(TB) leukemia): > 25 µM
GI50 (SK-OV-3 ovarian): > 25 µM
TGI (SK-OV-3 ovarian): > 25 µM
GI50 (KM12 colon): > 25 µM
TGI (KM12 colon): > 25 µM
GI50 (NCI-H460 lung): > 25 µM
TGI (NCI-H460 lung): > 25 µM
GI50 (HT29 colon): > 25 µM
TGI (HT29 colon): > 25 µM
GI50 (786-0 renal): > 25 µM
TGI (786-0 renal): > 25 µM
GI50 (A498 renal): > 25 µM
TGI (A498 renal): > 25 µM
GI50 (MCF7 breast): > 25 µM
TGI (MCF7 breast): > 25 µM
GI50 (OVCAR-3 ovarian): > 25 µM
TGI (OVCAR-3 ovarian): > 25 µM
GI50 (LOX IMVI melanoma): > 25 µM
TGI (LOX IMVI melanoma): > 25 µM
GI50 (HOP-62 NSCLC): > 25 µM
TGI (HOP-62 NSCLC): > 25 µM
GI50 (SF-539 CNS): > 25 µM
TGI (SF-539 CNS): > 25 µM
GI50 (BT-549 breast): > 25 µM
TGI (BT-549 breast): > 25 µM
GI50 (SK-MEL-28 melanoma): > 25 µM
TGI (SK-MEL-28 melanoma): > 25 µM
GI50 (HCT-116 colon): > 25 µM
TGI (HCT-116 colon): > 25 µM
GI50 (OVCAR-5 ovarian): > 25 µM
TGI (OVCAR-5 ovarian): > 25 µM
GI50 (HCT-15 colon): > 25 µM
TGI (HCT-15 colon): > 25 µM
GI50 (K-562 leukemia): > 25 µM
TGI (K-562 leukemia): > 25 µM
GI50 (SNB-75 CNS): > 25 µM
TGI (SNB-75 CNS): > 25 µM
GI50 (HOP-92 NSCLC): > 25 µM
TGI (HOP-92 NSCLC): > 25 µM
GI50 (OVCAR-8 ovarian): > 25 µM
TGI (OVCAR-8 ovarian): > 25 µM
GI50 (NCI-H23 lung): > 25 µM
TGI (NCI-H23 lung): > 25 µM
GI50 (IGROV1 ovarian): > 25 µM
TGI (IGROV1 ovarian): > 25 µM
GI50 (CCRF-CEM leukemia): > 25 µM
TGI (CCRF-CEM leukemia): > 25 µM
GI50 (MALME-3M melanoma): > 25 µM
TGI (MALME-3M melanoma): > 25 µM
GI50 (CAKI-1 renal): > 25 µM
TGI (CAKI-1 renal): > 25 µM
GI50 (SNB-19 CNS): > 25 µM
TGI (SNB-19 CNS): > 25 µM
GI50 (SR leukemia): > 25 µM
TGI (SR leukemia): > 25 µM
GI50 (RPMI-8226 leukemia): > 25 µM
TGI (RPMI-8226 leukemia): > 25 µM
GI50 (HCC-2998 colon): > 25 µM
TGI (HCC-2998 colon): > 25 µM
GI50 (RXF 393 renal): > 25 µM
TGI (RXF 393 renal): > 25 µM
GI50 (DU-145 prostate): > 25 µM
TGI (DU-145 prostate): > 25 µM
GI50 (U251 CNS): > 25 µM
TGI (U251 CNS): > 25 µM
GI50 (HS 578T breast): > 25 µM
TGI (HS 578T breast): > 25 µM
GI50 (TK-10 renal): > 25 µM
TGI (TK-10 renal): > 25 µM
GI50 (MDA-MB-231 breast): > 25 µM
TGI (MDA-MB-231 breast): > 25 µM
GI50 (UO-31 renal): > 25 µM
TGI (UO-31 renal): > 25 µM
GI50 (ACHN renal): > 25 µM
TGI (ACHN renal): > 25 µM
GI50 (SF-295 CNS): > 25 µM
TGI (SF-295 CNS): > 25 µM
GI50 (T-47D breast): > 25 µM
TGI (T-47D breast): > 25 µM
GI50 (NCI-H226 lung): > 25 µM
TGI (NCI-H226 lung): > 25 µM
GI50 (SK-MEL-5 melanoma): > 25 µM
TGI (SK-MEL-5 melanoma): > 25 µM
GI50 (SF-268 CNS): > 25 µM
TGI (SF-268 CNS): > 25 µM
GI50 (MOLT-4 leukemia): > 25 µM
TGI (MOLT-4 leukemia): > 25 µM
GI50 (COLO 205 colon): > 25 µM
TGI (COLO 205 colon): > 25 µM
GI50 (A549 NSCLC): > 25 µM
TGI (A549 NSCLC): > 25 µM
GI50 (OVCAR-4 ovarian): > 25 µM
TGI (OVCAR-4 ovarian): > 25 µM
GI50 (UACC-257 melanoma): > 25 µM
TGI (UACC-257 melanoma): > 25 µM
GI50 (SN12C renal): > 25 µM
TGI (SN12C renal): > 25 µM
GI50 (MDA-MB-435): > 25 µM
TGI (MDA-MB-435): > 25 µM
GI50 (NCI-H522 lung): > 25 µM
TGI (NCI-H522 lung): > 25 µM
GI50 (SW-620 colon): > 25 µM
TGI (SW-620 colon): > 25 µM
GI50 (PC-3 prostate): > 25 µM
TGI (PC-3 prostate): > 25 µM
GI50 (SK-MEL-2 melanoma): > 25 µM
TGI (SK-MEL-2 melanoma): > 25 µM
GI50 (UACC-62 melanoma): > 25 µM
TGI (UACC-62 melanoma): > 25 µM
GI50 (M14 melanoma): > 25 µM
TGI (M14 melanoma): > 25 µM
GI50 (NCI/ADR-RES ovarian): > 25 µM
TGI (NCI/ADR-RES ovarian): > 25 µM

Source: PubChem BioAssay (NCI)
